Laboratory results: the METLIN SMRT retention time set (Domingo-Almenara et al. 2019)

Test: gradient 5% acetonitrile 3 min, to 50% in 2 min, to 85% in 15 min, held 3 min, 100 µL/min
Settings: column: Zorbax Extend-C18 2.1 x 50 mm; eluents: water / acetonitrile, 0.1% formic acid
Procedure, shortened: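 Retention time was recorded from adduct peaks, which were picked computationally and each inspected manually. Pure standards ran in mixtures of ~100 molecules on HPLC coupled to a quadrupole time-of-flight mass spectrometer, in positive and negative ionization mode, through a Zorbax Extend-C18 column (2.1 × 50 mm, 1.8 μm) at 100 μL/min. Eluents were water and acetonitrile, each with 0.1% formic acid.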

| Structure (SMILES) | RP-LC retention time [s] |
| --- | --- |
| Cc1cc(-c2nc(-c3ccc(F)cc3)no2)c(C)n1CC(=O)NC1CCCC1 | 1080 |
| CCOC(=O)c1ccc(NC(=O)c2cn3c4c(ccc(Cl)c4c2=O)OCC3)cc1 | 1040 |
| Cc1noc(-c2cc(=O)n(CC(=O)NC3CCCC3)c3ccccc23)n1 | 782 |
| Cc1nc(-c2csc(S(=O)(=O)N3CCCC(C(=O)Nc4c(C)cccc4C)C3)c2)no1 (stereo not given) | 1060 |
| Cc1ccc(-c2noc(C3CCCN3C(=O)c3cncc(Br)c3)n2)cc1 (stereo not given) | 961 |
| CN(C)c1cccc(C(=O)NCC2CCN(C(=O)Oc3ccccc3)CC2)c1 | 723 |
| CCOC(=O)c1c(S(=O)(=O)N2CCC(C(=O)NCc3cccc(C)c3)CC2)c(C)n(CC)c1C | 975 |
| O=C1NCCOCCCN(C(=O)Nc2ccccc2)[C@H]2CCC[C@@H]12 | 741 |
| O=C(CCc1cn(-c2ccccc2)nc1-c1ccc2c(c1)OCO2)NCCCN1CCOCC1 | 681 |
| Cc1ccc(Nc2c(-c3ccc(N4CCOCC4)cc3)nc3ccc(C)cn23)cc1 | 739 |
| CCCN(c1cccc(Cl)c1)c1nc(C(=O)OCC)nc2ccccc12 | 1200 |
| CN1CCCCCCN(C(=O)Nc2ccc3c(c2)OCCO3)CCC1=O | 745 |
| c1ccc(CCc2nc3nccc(-c4cccnc4)n3n2)cc1 | 726 |
| CCOc1cccc(Cn2c(=O)c3sccc3n(Cc3nc(-c4ccc(C)cc4)no3)c2=O)c1 | 1120 |
| CCc1ccc(-n2ncc3c(=O)n(Cc4nc(-c5cccc(C)c5)no4)cnc32)cc1 | 1210 |
| O=c1n(Cc2ccccc2Cl)nc2c(S(=O)(=O)N3CCOCC3)cccn12 | 774 |
| Cc1nc2ccc(NC(=O)c3ccc(Cn4ccnc4)cc3)cc2s1 | 565 |
| Cn1nc(N)c2ncc(C(Cl)(Cl)Cl)nc21 | 876 |
| CCOC(=O)c1c(C)oc2ncnc(NCCN(C)Cc3ccccc3)c12 | 688 |
| CCc1nc2cccnc2n1CCN1CCN(C(=O)Nc2ccc(Br)cc2)CC1 | 631 |
| COc1ccc(S(=O)(=O)c2ccc(NCc3cccc(OC)c3)nn2)cc1 | 860 |
| Cc1cccc(C)c1NC(=O)NCc1ccco1 | 790 |
| Cc1cccc(Sc2nccnc2N2CCCC(C(=O)N3CCN(c4ccccn4)CC3)C2)c1 (stereo not given) | 761 |

| Structure (SMILES) | RP-LC retention time [s] |
| --- | --- |
| COc1ccc(OC(=O)c2cc3c(C)nn(-c4cccc(F)c4)c3s2)cc1 | 1460 |
| O=c1ccc(-c2cccc(Cl)c2)nn1Cc1nc(-c2cccs2)no1 | 1000 |
| CCn1nccc1C(=O)N1CCCN(c2nnc3ccccn23)CC1 | 879 |
| O=C1NC(C(=O)NCC2CC2)Cn2cccc21 (stereo not given) | 602 |
| Cc1ccc(Cn2c(N3CCCC(C(=O)NCc4ccc(C)o4)C3)nc3ccsc3c2=O)cc1 (stereo not given) | 952 |
| COc1ccc(CNC(=O)NCCc2cn(C)c3ncccc23)cc1 | 649 |
| CCCCn1cc(S(=O)(=O)NC2CCCCC2)c2cccnc21 | 1010 |
| COc1ccc(-c2cc(N3CCN(C(=O)c4ccc5[nH]ccc5c4)CC3)n[nH]2)cc1 | 703 |
| O=C(CC1CCCCN1S(=O)(=O)c1ccc(Cl)cc1)NCc1ccco1 (stereo not given) | 852 |
| NS(=O)(=O)c1ccc(-n2nc(C(F)(F)F)cc2-c2ccc(Cl)cc2)cc1 | 959 |
| Cc1c(N2CCC(C(=O)NCC3CCCO3)CC2)c(=O)n(CC(C)C)c(=O)n1-c1ccccc1 (stereo not given) | 832 |
| O=C(CSc1nnc2sc3ccccc3n12)Nc1ccc2c(c1)OCO2 | 691 |
| CC(=O)N1CCc2ccc(NC(=O)Nc3ccccc3Cl)cc21 | 755 |
| CCCCn1c(=O)c2ccccc2n(Cc2nc(-c3ccc(C)cc3)no2)c1=O | 853 |
| Cc1ccccc1S(=O)(=O)N1CCCC(CCC(=O)O)C1 (stereo not given) | 774 |
| Cc1ccc(-c2ccc(-n3nc(C)c(S(=O)(=O)N4CCOCC4)c3C)nn2)cc1C | 1060 |
| Cc1sc(-c2noc(C3CC3)n2)cc1S(=O)(=O)N1CCC(C(=O)NC2CCCCC2)CC1 | 1020 |
| CCn1nc(C)c(CCN(C)C(=O)c2cc3c(s2)N(C)CCCC3)c1C | 743 |
| CCc1noc(-c2ccc(-n3ncc(C(=O)N4CCN(C)CC4)c3C)nc2)n1 | 618 |
| Cc1cccc(N2CCN(c3ncc(C(=O)O)c(C)n3)CC2)c1 | 945 |
| COc1ccc(NC(=O)CSc2nccnc2Oc2ccc(C)cc2)cc1OC | 955 |
| Cc1oc(-c2[nH]ncc2C(=O)N(C)C)cc1S(=O)(=O)NC1CC1 | 614 |
| COC(=O)c1scc(C)c1NC(=O)C(C)NC(C)C (stereo not given) | 618 |

| Structure (SMILES) | RP-LC retention time [s] |
| --- | --- |
| CCc1noc(C2CCCCN2CC(=O)NCCc2cccs2)n1 (stereo not given) | 794 |
| CCCCN(C)S(=O)(=O)c1ccccc1-c1nc(-c2ccc(F)cc2)no1 | 1110 |
| COc1cccc(CCNC(=O)C2CCCN(c3ncnc4c3nc3n4CCCCC3)C2)c1OC (stereo not given) | 758 |
| CC1CCN(C(=O)c2cc(S(=O)(=O)N(C)CC(=O)N3CCN(c4ccccc4)CC3)c[nH]2)CC1 | 862 |
| COC(=O)c1cn(CC(=O)NCc2cc3c(cc2OC)OCCCO3)c2ccccc12 | 897 |
| O=C(N[C@H]1C[C@@H]2C[C@H]1CN2C(=O)Cc1c(F)cccc1Cl)c1cccs1 | 710 |
| Cc1noc(C2CN(C(=O)NCc3ccc(F)cc3)CC23CCOCC3)n1 (stereo not given) | 698 |
| CCSc1nnc(NC(=O)C2CCN(S(=O)(=O)c3ccc4c(c3)sc(=O)n4C)CC2)s1 | 862 |
| CCn1cc(-c2ccc(C)cc2)cc1C(=O)N1CCC2(CC1)OCCO2 | 1000 |
| CCN(CC)C(=O)c1cnc2snc(C)c2c1N1CCC(C(=O)Nc2cc(C)c(Cl)cc2OC)CC1 | 1070 |
| CCCCCCC(=O)OC1CC(C)(C)NC(C)(C)C1 | 707 |
| O=C(NCCc1ccccc1)c1nnc(-c2ccc(S(=O)(=O)N3CCCCC3)cc2)o1 | 1040 |
| CC(C)(C)C(=O)NCCN1C(=O)C2(CCCCC2)C1c1ccccc1 (stereo not given) | 903 |
| Cn1ncc2c3ccccc3n(CCCC(=O)NCCc3ccccc3)c2c1=O | 845 |
| CCn1cc(-c2nc(C)c(C(=O)Nc3ccccc3F)s2)c2cccnc21 | 1000 |
| CCCn1c(=O)c2cc(C(=O)NCc3ccc(F)cc3Cl)nn2c2ccccc21 | 834 |
| CCS(=O)(=O)c1nc2ccc(NS(=O)(=O)c3c(C)cc(C)cc3C)cc2s1 | 958 |
| CCn1cc(CCNC(=O)NCC(C)C)c2cccnc21 | 636 |
| COCc1nc2ccccc2n1CC(=O)Nc1ccccc1 | 780 |
| CCN1c2ccc(C)cc2C(=O)NC12CCN(C(=O)c1ccccc1OC)CC2 | 786 |
| COc1ccc(Cc2nc(Cn3ccnc3)no2)cc1OC | 592 |
| Cc1ccc(Nc2c(-c3cc(Br)ccc3O)nc3ncccn23)cc1Cl | 1170 |
| COc1cc(C(=O)Nc2nc(-c3ccc(Cl)cc3)cs2)cc(OC)c1OC | 1120 |

| Structure (SMILES) | RP-LC retention time [s] |
| --- | --- |
| Cc1cc2nn(CC(=O)Nc3cccc(F)c3)c(=O)n2c(Nc2ccc(F)cc2)n1 | 981 |
| CCOc1ccc(C(=O)Nc2cc(Cl)ccc2C)nn1 | 1040 |
| CCCCS(=O)(=O)NCCc1noc(-c2ccccc2)n1 | 615 |
| O=C(Cn1cccn1)N1CCN(c2ncccn2)CC1 | 567 |
| Cn1ncc2c3ccccc3n(CCCC(=O)NCCc3ccco3)c2c1=O | 775 |
| CC1CCN(c2nc(C(=O)N3CCN(c4ccccc4)CC3)nc3c2cnn3C)CC1 | 956 |
| O=C(NC1CCCC1)N1CCN(c2ncccc2-c2nnc(C3CC3)o2)CC1 | 719 |
| CC(C)OCCCNc1nc(Nc2ccc3c(c2)OCO3)c2cnn(-c3ccccc3)c2n1 | 1140 |
| COc1ccc(Cl)cc1C(=O)NC1CCN(c2cc(-c3cccs3)[nH]n2)C1 (stereo not given) | 802 |
| Cc1cc2nn(CC(=O)Nc3ccc(F)cc3)c(=O)n2c(N2CCCC2)n1 | 739 |
| CCC1(O)CCC12CCN(C(=O)C1CCCC1)CC2 (stereo not given) | 773 |
| O=C(c1ccc(S(=O)(=O)c2ccc(Cl)cc2)s1)N1CCN(c2ccccn2)CC1 | 702 |
| Cc1oc(-c2[nH]ncc2C(=O)N(C)C)cc1S(=O)(=O)N1CCC(C)CC1 | 710 |
| CC(C)CCNC(=O)C1(C)CN(S(=O)(=O)c2ccccc2)CC(=O)N1c1cccc(F)c1 (stereo not given) | 953 |
| COc1ccccc1-n1ccnc(NC(=O)Nc2ccc(F)cc2)c1=O | 896 |
| Nc1cc(C2CCN(C(=O)Nc3ccc(Cl)cc3)CC2)no1 | 722 |
| O=C1CCc2cc(OCCCCc3nnnn3C3CCCCC3)ccc2N1 | 880 |
| COc1ccc(NC(=O)c2cc3c(=O)n(CC(C)C)c4ccccc4n3n2)c(OC)c1 | 1180 |
| O=C(Cc1ccsc1)N1CCC(Nc2ncnc3c2CCC3)CC1 | 673 |
| O=C(c1ccc[nH]c1=O)N1CCC(Cn2c(COc3ccccc3)nc3ccccc32)CC1 | 556 |
| CCOC(=O)c1ccc(Nc2c(-c3ccc(OC)cc3)nc3cnccn23)cc1 | 641 |
